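Five compound concentrations were applied to cells in 96-well plates for 48 hours; endpoints were derived by simple linear interpolation of the resulting dose-response curve. Abbreviation: GI50, concentration required for 50% inhibition of growth.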 The source made the active and inactive calls. No stated cut-off is given here; in the data, active = GI50 up to about 1.1 µM and inactive = higher.
Columns and labels:
Assay in all cases: NCI-60 cell line screen, 48 h
HCC 2998 = system: HCC 2998
OVCAR-5 = system: OVCAR-5
Hs-578T = system: Hs-578T
NCI/ADR-RES = system: NCI/ADR-RES
NCI-H226 = system: NCI-H226
SK-OV-3 = system: SK-OV-3
UACC-257 = system: UACC-257
SR = system: SR
HT-29 = system: HT-29
COLO 205 = system: COLO 205
BT-549 = system: BT-549
T47D = system: T47D
Malme-3M = system: Malme-3M
SNB-75 = system: SNB-75
786-0 = system: 786-0
M14 = system: M14
NCI-H23 = system: NCI-H23
HOP-62 = system: HOP-62
SF-539 = system: SF-539
SNB-19 = system: SNB-19
MDA-N = system: MDA-N
HCT-116 = system: HCT-116
SK-MEL-2 = system: SK-MEL-2
SK-MEL-28 = system: SK-MEL-28
TK-10 = system: TK-10
LOX IMVI = system: LOX IMVI
MOLT-4 = system: MOLT-4
OVCAR-8 = system: OVCAR-8
HL-60 = system: HL-60
K562 = system: K562
OVCAR-3 = system: OVCAR-3
UACC-62 = system: UACC-62
ACHN = system: ACHN
RPMI-8226 = system: RPMI-8226
HCT-15 = system: HCT-15
KM12 = system: KM12
MCF7 = system: MCF7
UO-31 = system: UO-31
RXF 393 = system: RXF 393
NCI-H460 = system: NCI-H460
PC-3 = system: PC-3
SW-620 = system: SW-620
IGROV-1 = system: IGROV-1
DU-145 = system: DU-145
A498 = system: A498
OVCAR-4 = system: OVCAR-4
SK-MEL-5 = system: SK-MEL-5
SN12C = system: SN12C
MDA-MB-231 = system: MDA-MB-231
A549 = system: A549
CCRF-CEM = system: CCRF-CEM
NCI-H522 = system: NCI-H522
EKVX = system: EKVX
HOP-92 = system: HOP-92
SF-268 = system: SF-268
SF-295 = system: SF-295
U-251 = system: U-251
CAKI-1 = system: CAKI-1
MDA-MB-435 = system: MDA-MB-435

c1ccc(CN2CCN3CCN(CC2)CCN(Cc2ccccc2)CC3)cc1
GI50 (HCC 2998): 10.9 µM (inactive) | GI50 (OVCAR-5): 9.48 µM (inactive) | GI50 (Hs-578T): 14.6 µM (inactive) | GI50 (NCI/ADR-RES): > 100 µM (inactive) | GI50 (NCI-H226): 4.94 µM (inactive) | GI50 (SK-OV-3): 16.4 µM (inactive) | GI50 (UACC-257): 3.04 µM (inactive) | GI50 (SR): 4.08 µM (inactive) | GI50 (HT-29): 3.37 µM (inactive) | GI50 (COLO 205): 1.93 µM (inactive) | GI50 (BT-549): 5.16 µM (inactive) | GI50 (T47D): 4.08 µM (inactive) | GI50 (Malme-3M): 2.83 µM (inactive) | GI50 (SNB-75): 4.05 µM (inactive) | GI50 (786-0): 4.57 µM (inactive) | GI50 (M14): 5.51 µM (inactive) | GI50 (NCI-H23): 5.05 µM (inactive) | GI50 (HOP-62): 14.2 µM (inactive) | GI50 (SF-539): 8.26 µM (inactive) | GI50 (SNB-19): 5.43 µM (inactive) | GI50 (MDA-N): 3.3 µM (inactive) | GI50 (HCT-116): 4.09 µM (inactive) | GI50 (SK-MEL-2): 2.82 µM (inactive) | GI50 (SK-MEL-28): 4.67 µM (inactive) | GI50 (TK-10): 11.4 µM (inactive) | GI50 (LOX IMVI): 8.81 µM (inactive) | GI50 (MOLT-4): 8.75 µM (inactive) | GI50 (OVCAR-8): 9.73 µM (inactive) | GI50 (HL-60): 2.55 µM (inactive) | GI50 (K562): 4 µM (inactive) | GI50 (OVCAR-3): 7.91 µM (inactive) | GI50 (UACC-62): 4.24 µM (inactive) | GI50 (ACHN): 20.7 µM (inactive) | GI50 (RPMI-8226): 2.14 µM (inactive) | GI50 (HCT-15): 32.4 µM | GI50 (KM12): 3.33 µM (inactive) | GI50 (MCF7): 5.5 µM (inactive) | GI50 (UO-31): 31.7 µM (inactive) | GI50 (RXF 393): 5.6 µM (inactive) | GI50 (NCI-H460): 6.15 µM (inactive) | GI50 (PC-3): 4.97 µM (inactive) | GI50 (SW-620): 13.7 µM (inactive) | GI50 (IGROV-1): 7.23 µM (inactive) | GI50 (DU-145): 12.4 µM (inactive) | GI50 (A498): 11.7 µM (inactive) | GI50 (OVCAR-4): 4.04 µM (inactive) | GI50 (SK-MEL-5): 1.98 µM (inactive) | GI50 (SN12C): 4.51 µM (inactive) | GI50 (MDA-MB-231): 5.43 µM (inactive) | GI50 (A549): 11.5 µM (inactive) | GI50 (CCRF-CEM): 6.37 µM (inactive) | GI50 (NCI-H522): 4.36 µM (inactive) | GI50 (EKVX): 8.47 µM (inactive) | GI50 (HOP-92): 7.06 µM (inactive) | GI50 (SF-268): 11.6 µM (inactive) | GI50 (SF-295): 21.9 µM (inactive) | GI50 (U-251): 4.29 µM (inactive) | GI50 (CAKI-1): 30.3 µM (inactive) | GI50 (MDA-MB-435): 3.15 µM (inactive)

Nc1nc(Cl)c(N)c(NCC2(CO)CC2)n1
GI50 (HCC 2998): > 100 µM (inactive) | GI50 (OVCAR-5): > 100 µM (inactive) | GI50 (Hs-578T): > 100 µM (inactive) | GI50 (NCI/ADR-RES): > 100 µM (inactive) | GI50 (NCI-H226): > 100 µM (inactive) | GI50 (SK-OV-3): > 100 µM (inactive) | GI50 (UACC-257): > 100 µM (inactive) | GI50 (SR): > 100 µM (inactive) | GI50 (HT-29): > 100 µM (inactive) | GI50 (COLO 205): > 100 µM (inactive) | GI50 (BT-549): > 100 µM (inactive) | GI50 (T47D): > 100 µM (inactive) | GI50 (Malme-3M): > 100 µM (inactive) | GI50 (SNB-75): > 100 µM (inactive) | GI50 (786-0): > 100 µM (inactive) | GI50 (M14): > 100 µM (inactive) | GI50 (NCI-H23): > 100 µM (inactive) | GI50 (HOP-62): > 100 µM (inactive) | GI50 (SF-539): > 100 µM (inactive) | GI50 (SNB-19): > 100 µM (inactive) | GI50 (MDA-N): > 100 µM (inactive) | GI50 (HCT-116): > 100 µM (inactive) | GI50 (SK-MEL-2): > 100 µM (inactive) | GI50 (SK-MEL-28): > 100 µM (inactive) | GI50 (TK-10): > 100 µM (inactive) | GI50 (LOX IMVI): > 100 µM (inactive) | GI50 (MOLT-4): > 100 µM (inactive) | GI50 (OVCAR-8): > 100 µM (inactive) | GI50 (HL-60): > 100 µM (inactive) | GI50 (K562): > 100 µM (inactive) | GI50 (OVCAR-3): > 100 µM (inactive) | GI50 (UACC-62): > 100 µM (inactive) | GI50 (ACHN): > 100 µM (inactive) | GI50 (RPMI-8226): > 100 µM (inactive) | GI50 (HCT-15): > 100 µM | GI50 (KM12): > 100 µM (inactive) | GI50 (MCF7): > 100 µM (inactive) | GI50 (UO-31): > 100 µM (inactive) | GI50 (RXF 393): > 100 µM (inactive) | GI50 (NCI-H460): > 100 µM (inactive) | GI50 (PC-3): > 100 µM (inactive) | GI50 (SW-620): > 100 µM (inactive) | GI50 (IGROV-1): > 100 µM (inactive) | GI50 (DU-145): > 100 µM (inactive) | GI50 (A498): > 100 µM (inactive) | GI50 (OVCAR-4): > 100 µM (inactive) | GI50 (SK-MEL-5): > 100 µM (inactive) | GI50 (SN12C): > 100 µM (inactive) | GI50 (MDA-MB-231): > 100 µM (inactive) | GI50 (A549): > 100 µM (inactive) | GI50 (CCRF-CEM): > 100 µM (inactive) | GI50 (NCI-H522): > 100 µM (inactive) | GI50 (EKVX): > 100 µM (inactive) | GI50 (HOP-92): > 100 µM (inactive) | GI50 (SF-268): > 100 µM (inactive) | GI50 (SF-295): > 100 µM (inactive) | GI50 (U-251): > 100 µM (inactive) | GI50 (CAKI-1): > 100 µM (inactive) | GI50 (MDA-MB-435): > 100 µM (inactive)

From ChEMBL document CHEMBL1201862, “PubChem BioAssay data set” (2004)
